# Experimental data from PubChem BioAssay AID1963970 (Molecular Pharmacology Branch, DTP, NCI, 2024).
# Test system: 931267-113-T-J1-PDC multicell spheroid viability
# Test: Anticancer human tumor 931267-113-T-J1-PDC patient-derived colon adenocarcinoma cell line growth inhibition [PI3K]
# Details: for IC50: curve of first compound; for viability, T/C: stronger effect = lower value
# Method in brief: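 Spheroid viability read-out. Co-cultures contained the tumor line plus HUVEC and human MSCs. Each agent was paired with a PI3K inhibitor (inavolisib, alpelisib, duvelisib, copanlisib) across half-log dilutions starting at clinical Cmax, or at 10 microM when Cmax was unknown.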
# [1] = second compound 0.00316 µM, first compound 0.0316 µM
# [2] = second compound 0.00316 µM, first compound 0.1 µM
# [3] = second compound 0.01 µM, first compound 0.0316 µM
# [4] = second compound 0.01 µM, first compound 0.1 µM
# [5] = second compound 0.0316 µM, first compound 0.0316 µM
# [6] = second compound 0.0316 µM, first compound 0.1 µM
# [7] = second compound 0.1 µM, first compound 0.0316 µM
# [8] = second compound 0.1 µM, first compound 0.1 µM
# [9] = second compound 0.316 µM, first compound 0.0316 µM
# [10] = second compound 0.316 µM, first compound 0.1 µM
# [11] = second compound 1 µM, first compound 0.0316 µM
# [12] = second compound 1 µM, first compound 0.1 µM
# 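Also: viability read 7 days after compound addition.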
smiles,measurement,setting,value
CC(=O)c1c(C)c2cnc(Nc3ccc(N4CCNCC4)cn3)nc2n(C2CCCC2)c1=O + COc1c(OCCCN2CCOCC2)ccc2c3n(c(=NC(=O)c4cnc(N)nc4)nc12)CCN3,IC50,second compound 0.00316 µM,> 100 nM
same,IC50,second compound 0.01 µM,> 100 nM
same,IC50,second compound 0.0316 µM,> 100 nM
same,IC50,second compound 0.1 µM,> 100 nM
same,IC50,second compound 0.316 µM,0.489 nM
same,IC50,second compound 1 µM,< 0.316 nM
same,"viability, T/C","second compound 0.00316 µM, first compound 0.000316 µM",108%
same,"viability, T/C","second compound 0.00316 µM, first compound 0.001 µM",102%
same,"viability, T/C","second compound 0.00316 µM, first compound 0.00316 µM",94.8%
same,"viability, T/C","second compound 0.00316 µM, first compound 0.01 µM",99.6%
same,"viability, T/C",[1],97.3%
same,"viability, T/C",[2],94.8%
same,"viability, T/C","second compound 0.01 µM, first compound 0.000316 µM",105%
same,"viability, T/C","second compound 0.01 µM, first compound 0.001 µM",97.7%
same,"viability, T/C","second compound 0.01 µM, first compound 0.00316 µM",92.7%
same,"viability, T/C","second compound 0.01 µM, first compound 0.01 µM",94%
same,"viability, T/C",[3],98.6%
same,"viability, T/C",[4],91.5%
same,"viability, T/C","second compound 0.0316 µM, first compound 0.000316 µM",77.5%
same,"viability, T/C","second compound 0.0316 µM, first compound 0.001 µM",84.4%
same,"viability, T/C","second compound 0.0316 µM, first compound 0.00316 µM",76.2%
same,"viability, T/C","second compound 0.0316 µM, first compound 0.01 µM",80.9%
same,"viability, T/C",[5],82.3%
same,"viability, T/C",[6],79.4%
same,"viability, T/C","second compound 0.1 µM, first compound 0.000316 µM",70.8%
same,"viability, T/C","second compound 0.1 µM, first compound 0.001 µM",65%
same,"viability, T/C","second compound 0.1 µM, first compound 0.00316 µM",66.2%
same,"viability, T/C","second compound 0.1 µM, first compound 0.01 µM",64.1%
same,"viability, T/C",[7],67.7%
same,"viability, T/C",[8],51.2%
same,"viability, T/C","second compound 0.316 µM, first compound 0.000316 µM",51.9%
same,"viability, T/C","second compound 0.316 µM, first compound 0.001 µM",47.2%
same,"viability, T/C","second compound 0.316 µM, first compound 0.00316 µM",47.6%
same,"viability, T/C","second compound 0.316 µM, first compound 0.01 µM",43.8%
same,"viability, T/C",[9],44.5%
same,"viability, T/C",[10],37.5%
same,"viability, T/C","second compound 1 µM, first compound 0.000316 µM",35.1%
same,"viability, T/C","second compound 1 µM, first compound 0.001 µM",35.9%
same,"viability, T/C","second compound 1 µM, first compound 0.00316 µM",32.2%
same,"viability, T/C","second compound 1 µM, first compound 0.01 µM",31.9%
same,"viability, T/C",[11],34.3%
same,"viability, T/C",[12],26.1%
CNC(=O)c1ccc(N2C(=S)N(c3ccc(C#N)c(C(F)(F)F)c3)C(=O)C2(C)C)cc1F + COc1c(OCCCN2CCOCC2)ccc2c3n(c(=NC(=O)c4cnc(N)nc4)nc12)CCN3,IC50,second compound 0.00316 µM,> 10000 nM
same,IC50,second compound 0.01 µM,> 10000 nM
same,IC50,second compound 0.0316 µM,> 10000 nM
same,IC50,second compound 0.1 µM,> 10000 nM
same,IC50,second compound 0.316 µM,1560 nM
same,IC50,second compound 1 µM,< 31.6 nM
same,"viability, T/C",[1],109%
same,"viability, T/C",[2],107%
same,"viability, T/C","second compound 0.00316 µM, first compound 0.316 µM",99.3%
same,"viability, T/C","second compound 0.00316 µM, first compound 1 µM",101%
same,"viability, T/C","second compound 0.00316 µM, first compound 3.16 µM",104%
same,"viability, T/C","second compound 0.00316 µM, first compound 10 µM",104%
same,"viability, T/C",[3],105%
same,"viability, T/C",[4],93.5%
same,"viability, T/C","second compound 0.01 µM, first compound 0.316 µM",102%
same,"viability, T/C","second compound 0.01 µM, first compound 1 µM",92%
same,"viability, T/C","second compound 0.01 µM, first compound 3.16 µM",100%
same,"viability, T/C","second compound 0.01 µM, first compound 10 µM",94.2%
same,"viability, T/C",[5],85.2%
same,"viability, T/C",[6],80.7%
same,"viability, T/C","second compound 0.0316 µM, first compound 0.316 µM",85.7%
same,"viability, T/C","second compound 0.0316 µM, first compound 1 µM",86.8%
same,"viability, T/C","second compound 0.0316 µM, first compound 3.16 µM",93.2%
same,"viability, T/C","second compound 0.0316 µM, first compound 10 µM",74.4%
same,"viability, T/C",[7],70.8%
same,"viability, T/C",[8],68.5%
same,"viability, T/C","second compound 0.1 µM, first compound 0.316 µM",75.7%
same,"viability, T/C","second compound 0.1 µM, first compound 1 µM",68.5%
same,"viability, T/C","second compound 0.1 µM, first compound 3.16 µM",69.1%
same,"viability, T/C","second compound 0.1 µM, first compound 10 µM",57.8%
same,"viability, T/C",[9],51%
same,"viability, T/C",[10],55.9%
same,"viability, T/C","second compound 0.316 µM, first compound 0.316 µM",53.9%
same,"viability, T/C","second compound 0.316 µM, first compound 1 µM",52%
same,"viability, T/C","second compound 0.316 µM, first compound 3.16 µM",46.4%
same,"viability, T/C","second compound 0.316 µM, first compound 10 µM",40.8%
same,"viability, T/C",[11],36.4%
same,"viability, T/C",[12],38.4%
same,"viability, T/C","second compound 1 µM, first compound 0.316 µM",39.3%
same,"viability, T/C","second compound 1 µM, first compound 1 µM",34.2%
same,"viability, T/C","second compound 1 µM, first compound 3.16 µM",36.1%
same,"viability, T/C","second compound 1 µM, first compound 10 µM",30.1%
Cn1cnc2c(F)c(Nc3ccc(Br)cc3Cl)c(C(=O)NOCCO)cc21 + COc1c(OCCCN2CCOCC2)ccc2c3n(c(=NC(=O)c4cnc(N)nc4)nc12)CCN3,IC50,second compound 0.00316 µM,103 nM
same,IC50,second compound 0.01 µM,81 nM
same,IC50,second compound 0.0316 µM,42.2 nM
same,IC50,second compound 0.1 µM,14 nM
same,IC50,second compound 0.316 µM,< 9.49 nM
same,IC50,second compound 1 µM,< 9.49 nM
same,"viability, T/C","second compound 0.00316 µM, first compound 0.00949 µM",83.7%
same,"viability, T/C","second compound 0.00316 µM, first compound 0.03 µM",71%
same,"viability, T/C","second compound 0.00316 µM, first compound 0.0949 µM",51.1%
same,"viability, T/C","second compound 0.00316 µM, first compound 0.3 µM",31.4%
same,"viability, T/C","second compound 0.00316 µM, first compound 0.949 µM",18.3%
same,"viability, T/C","second compound 0.00316 µM, first compound 3 µM",9.54%
same,"viability, T/C","second compound 0.01 µM, first compound 0.00949 µM",88.6%
same,"viability, T/C","second compound 0.01 µM, first compound 0.03 µM",73.1%
same,"viability, T/C","second compound 0.01 µM, first compound 0.0949 µM",45%
same,"viability, T/C","second compound 0.01 µM, first compound 0.3 µM",25.6%
same,"viability, T/C","second compound 0.01 µM, first compound 0.949 µM",15.3%
same,"viability, T/C","second compound 0.01 µM, first compound 3 µM",8.03%
same,"viability, T/C","second compound 0.0316 µM, first compound 0.00949 µM",76.4%
same,"viability, T/C","second compound 0.0316 µM, first compound 0.03 µM",57%
same,"viability, T/C","second compound 0.0316 µM, first compound 0.0949 µM",33.7%
same,"viability, T/C","second compound 0.0316 µM, first compound 0.3 µM",17.5%
same,"viability, T/C","second compound 0.0316 µM, first compound 0.949 µM",10.3%
same,"viability, T/C","second compound 0.0316 µM, first compound 3 µM",5.43%
same,"viability, T/C","second compound 0.1 µM, first compound 0.00949 µM",56.4%
same,"viability, T/C","second compound 0.1 µM, first compound 0.03 µM",37.7%
same,"viability, T/C","second compound 0.1 µM, first compound 0.0949 µM",19.6%
same,"viability, T/C","second compound 0.1 µM, first compound 0.3 µM",11.9%
same,"viability, T/C","second compound 0.1 µM, first compound 0.949 µM",7.31%
same,"viability, T/C","second compound 0.1 µM, first compound 3 µM",4.08%
same,"viability, T/C","second compound 0.316 µM, first compound 0.00949 µM",39.2%
same,"viability, T/C","second compound 0.316 µM, first compound 0.03 µM",25.2%
same,"viability, T/C","second compound 0.316 µM, first compound 0.0949 µM",14.3%
same,"viability, T/C","second compound 0.316 µM, first compound 0.3 µM",8.7%
same,"viability, T/C","second compound 0.316 µM, first compound 0.949 µM",5.28%
same,"viability, T/C","second compound 0.316 µM, first compound 3 µM",2.51%
same,"viability, T/C","second compound 1 µM, first compound 0.00949 µM",26.2%
same,"viability, T/C","second compound 1 µM, first compound 0.03 µM",17.8%
same,"viability, T/C","second compound 1 µM, first compound 0.0949 µM",9.52%
same,"viability, T/C","second compound 1 µM, first compound 0.3 µM",4.72%
same,"viability, T/C","second compound 1 µM, first compound 0.949 µM",2.93%
same,"viability, T/C","second compound 1 µM, first compound 3 µM",1.42%
